Assay [1] relates to Plasmodium berghei. Description: Antimalarial activity against Plasmodium berghei NK65 infected in BALB/c mouse assessed as inhibition of parasitemia at 50 mg/kg, po qd for 4 days measured on 7th day after parasite inoculation by Giemsa staining based microscopy relative to control. Conditions: 96 h. Type of assay: functional.
The test system of assay [2] is Plasmodium berghei. Description: Antimalarial activity against Plasmodium berghei NK65 infected in BALB/c mouse assessed as inhibition of parasitemia at 25 mg/kg, po qd for 4 days measured on 5th day after parasite inoculation by Giemsa staining based microscopy relative to control. To be noted: 96 h. Type of assay: functional.
The subject of assay [3] is Plasmodium berghei. Description: Antimalarial activity against Plasmodium berghei NK65 infected in BALB/c mouse assessed as mean survival time at 50 mg/kg, po qd for 4 days (reference value: 22 +/- 3 days). Type of assay: functional.
The subject of assay [4] is Plasmodium berghei. The assay can be described thus: Antimalarial activity against Plasmodium berghei NK65 infected in BALB/c mouse assessed as mean survival time at 25 mg/kg, sc qd for 4 days (reference value: 23 +/- 4 days). The format is functional.
In assay [5] the test system is Plasmodium berghei. Description: Antimalarial activity against Plasmodium berghei NK65 infected in BALB/c mouse assessed as mean survival time at 50 mg/kg, sc qd for 4 days (reference value: 23 +/- 4 days). Type of assay: functional.
Assay [6] deals with Plasmodium berghei. The assay can be described thus: Antimalarial activity against Plasmodium berghei NK65 infected in BALB/c mouse assessed as inhibition of parasitemia at 50 mg/kg, sc qd for 4 days measured on 7th day after parasite inoculation by Giemsa staining based microscopy relative to control. The format is functional. Conditions: 96 h.
The subject of assay [7] is Plasmodium berghei. The assay can be described thus: Antimalarial activity against Plasmodium berghei NK65 infected in BALB/c mouse assessed as inhibition of parasitemia at 25 mg/kg, sc qd for 4 days measured on 5th day after parasite inoculation by Giemsa staining based microscopy relative to control. To be noted: 96 h. The format is functional.
Assay [8] relates to Plasmodium berghei. The assay can be described thus: Antimalarial activity against Plasmodium berghei NK65 infected in BALB/c mouse assessed as inhibition of parasitemia at 50 mg/kg, sc qd for 4 days measured on 5th day after parasite inoculation by Giemsa staining based microscopy relative to control. The format is functional. To be noted: 96 h.
The test system of assay [9] is Plasmodium berghei. Description: Antimalarial activity against Plasmodium berghei NK65 infected in BALB/c mouse assessed as inhibition of parasitemia at 50 mg/kg, po qd for 4 days measured on 5th day after parasite inoculation by Giemsa staining based microscopy relative to control. The format is functional. Conditions: 96 h.
For assay [10], the system named is Plasmodium berghei. The assay can be described thus: Antimalarial activity against Plasmodium berghei NK65 infected in BALB/c mouse assessed as mean survival time at 25 mg/kg, po qd for 4 days (reference value: 22 +/- 3 days). The format is functional.
For assay [11], the system named is Plasmodium berghei. The assay can be described thus: Antimalarial activity against Plasmodium berghei NK65 infected in BALB/c mouse assessed as inhibition of parasitemia at 25 mg/kg, po qd for 4 days measured on 7th day after parasite inoculation by Giemsa staining based microscopy relative to control. Type of assay: functional. Conditions: 96 h.
Assay [12] concerns Plasmodium berghei. Description: Antimalarial activity against Plasmodium berghei NK65 infected in BALB/c mouse assessed as inhibition of parasitemia at 25 mg/kg, sc qd for 4 days measured on 7th day after parasite inoculation by Giemsa staining based microscopy relative to control. Type of assay: functional. Conditions: 96 h.
In assay [13] the test system is Plasmodium berghei. Description: Antimalarial activity against Plasmodium berghei NK65 infected in BALB/c mouse assessed as inhibition of parasitemia at 5 mg/kg, sc qd for 4 days measured on 5th day after parasite inoculation by Giemsa staining based microscopy relative to control. The format is functional. To be noted: 96 h.
For assay [14], the system named is Plasmodium berghei. Description: animal or person. Conditions: NK65, in Mus musculus, po, 96 h, read-out: INH.
Description: Antimalarial activity against Plasmodium berghei NK65 infected in BALB/c mouse assessed as inhibition of parasitemia at 5 mg/kg, po qd for 4 days measured on 5th day after parasite inoculation by Giemsa staining based microscopy relative to control
For assay [15], the system named is Plasmodium berghei. Description: Antimalarial activity against Plasmodium berghei NK65 infected in BALB/c mouse assessed as mean survival time at 5 mg/kg, sc qd for 4 days (reference value: 23 +/- 4 days). Type of assay: functional. To be noted: 96 h.
The test system of assay [16] is Plasmodium berghei. Description: Antimalarial activity against Plasmodium berghei NK65 infected in BALB/c mouse assessed as inhibition of parasitemia at 5 mg/kg, po qd for 4 days measured on 7th day after parasite inoculation by Giemsa staining based microscopy relative to control. The format is functional. To be noted: 96 h.
Assay [17] has as its system Plasmodium berghei. The assay can be described thus: Antimalarial activity against Plasmodium berghei NK65 infected in BALB/c mouse assessed as inhibition of parasitemia at 5 mg/kg, sc qd for 4 days measured on 7th day after parasite inoculation by Giemsa staining based microscopy relative to control. Type of assay: functional. To be noted: 96 h.
In assay [18] the test system is Plasmodium berghei. Description: Antimalarial activity against Plasmodium berghei NK65 infected in BALB/c mouse assessed as mean survival time at 5 mg/kg, po qd for 4 days (reference value: 22 +/- 3 days). The format is functional.

`CC(C)=C[C@H](O)C[C@@H](C)[C@H]1CC[C@@]2(C)[C@@H]3[C@@H](O[C@@H]4O[C@H](CO)[C@@H](O)[C@@H](O)[C@H]4O)C=C4[C@@H](CC[C@H](O)C4(C)C)[C@]3(C)CC[C@]12C` [BALSAMINOSIDE B]: the inhibition in vivo at 50 mg/kg in the assay on Plasmodium berghei [1] worked out at 8.6%; in the assay on Plasmodium berghei [6], 5.5%; in the assay on Plasmodium berghei [8] it was 37.1%; in the assay with Plasmodium berghei [9], 36.2%. Besides, the inhibition in vivo at 25 mg/kg in the assay with Plasmodium berghei [2] is 23.9%; in the assay with Plasmodium berghei [7] it was 12.5%; in the assay on Plasmodium berghei [11], 0%; in the assay with Plasmodium berghei [12], 0%. Also, the MST was found to be 23 days in the assay with Plasmodium berghei [3], 20 days in the assay on Plasmodium berghei [4], 21 days in the assay on Plasmodium berghei [5] and 21 days with Plasmodium berghei [10].
Turning to `CCN(CC)CCCC(C)Nc1ccnc2cc(Cl)ccc12` (centres undefined) [CHLOROQUINE], the inhibition in vivo at 5 mg/kg turned out to be 99% in the assay with Plasmodium berghei [13], 100% with Plasmodium berghei [14], 98% in the assay with Plasmodium berghei [16] and 99% with Plasmodium berghei [17]. In addition, the mean survival time at 5 mg/kg in the assay on Plasmodium berghei [15] and in the assay on Plasmodium berghei [18] was above 40 days throughout.
Consider `CO[C@H]1C=C2[C@@H](CC[C@H](O)C2(C)C)[C@]2(C)CC[C@]3(C)[C@@H]([C@H](C)C[C@@H](O)C=C(C)C)CC[C@@]3(C)[C@H]12` [KARAVELAGENIN C], for which the inhibition in vivo at 50 mg/kg with Plasmodium berghei [1] was determined as 3.4%; with Plasmodium berghei [6] it was 1%; in the assay with Plasmodium berghei [8], 18.6%; in the assay with Plasmodium berghei [9] it was 33.1%. The inhibition in vivo at 25 mg/kg with Plasmodium berghei [2] is 22.7%; with Plasmodium berghei [7], 21.3%; with Plasmodium berghei [11], 0%; in the assay on Plasmodium berghei [12], 0%. The MST in the assay on Plasmodium berghei [3] worked out at 22 days; with Plasmodium berghei [4] it was 23 days; in the assay on Plasmodium berghei [5], 22 days; in the assay with Plasmodium berghei [10], 21 days.
On to `CO[C@H]1C=C2[C@@H](CC[C@H](OC(C)=O)C2(C)C)[C@]2(C)CC[C@]3(C)[C@@H]([C@H](C)C[C@H](C=C(C)C)OC(C)=O)CC[C@@]3(C)[C@H]12` [KARAVOATE B], for which the inhibition in vivo at 50 mg/kg came to 25.6% with Plasmodium berghei [1], 28.4% in the assay on Plasmodium berghei [6], 55.2% in the assay with Plasmodium berghei [8] and 58.1% in the assay on Plasmodium berghei [9]. Also, the inhibition in vivo at 25 mg/kg in the assay on Plasmodium berghei [2] came out at 41.8%; with Plasmodium berghei [7], 39.2%; in the assay with Plasmodium berghei [11] it was 13.2%; with Plasmodium berghei [12], 10.1%. Also, the MST was 23 days in the assay on Plasmodium berghei [3], 20 days in the assay on Plasmodium berghei [4], 24 days in the assay on Plasmodium berghei [5] and 21 days with Plasmodium berghei [10].
On to `CCC(=O)O[C@H]1CC[C@@H]2C(=C[C@H](OC)[C@@H]3[C@@]2(C)CC[C@]2(C)[C@@H]([C@H](C)C[C@H](C=C(C)C)OC(=O)CC)CC[C@@]32C)C1(C)C` [KARAVOATE D], for which the inhibition in vivo at 50 mg/kg came to 11.5% with Plasmodium berghei [1], 10.5% in the assay on Plasmodium berghei [6], 42.5% with Plasmodium berghei [8] and 45.5% with Plasmodium berghei [9]. The inhibition in vivo at 25 mg/kg amounted to 12.3% with Plasmodium berghei [2], 11.9% with Plasmodium berghei [7], 0% with Plasmodium berghei [11] and 0% in the assay with Plasmodium berghei [12]. For the same molecule, the MST was 24 days with Plasmodium berghei [3], 22 days in the assay on Plasmodium berghei [4], 24 days with Plasmodium berghei [5] and 23 days with Plasmodium berghei [10].

Source of the values: ChEMBL document CHEMBL3616477, “In vivo evaluation of isolated triterpenes and semi-synthetic derivatives as antimalarial agents” (2015).
